Source: ChEMBL document CHEMBL1201862, “PubChem BioAssay data set” (2004)
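Assay format: 96-well plates, 48-hour exposure. GI50 = concentration required for 50% inhibition of growth.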 The source made the active and inactive calls. No stated cut-off is given here; in the data, active = GI50 up to about 1.1 µM and inactive = higher.

Assays:
Test in all cases: NCI anticancer screen, dose series, 48 h
NCI-H522 = test system: NCI-H522
SR = test system: SR
LOX IMVI = test system: LOX IMVI
786-0 = test system: 786-0
CCRF-CEM = test system: CCRF-CEM
OVCAR-8 = test system: OVCAR-8
HOP-62 = test system: HOP-62
SK-OV-3 = test system: SK-OV-3
KM12 = test system: KM12
M14 = test system: M14
HCC 2998 = test system: HCC 2998
OVCAR-4 = test system: OVCAR-4
SK-MEL-5 = test system: SK-MEL-5
NCI/ADR-RES = test system: NCI/ADR-RES
UACC-62 = test system: UACC-62
OVCAR-3 = test system: OVCAR-3
CAKI-1 = test system: CAKI-1
OVCAR-5 = test system: OVCAR-5

Measured: GI50

c1ccc2c(c1)[nH]c1c3ccccc3sc21
inactive: NCI-H522 > 100 µM | SR 23 µM | LOX IMVI > 100 µM | 786-0 > 100 µM | CCRF-CEM > 100 µM | OVCAR-8 > 100 µM | HOP-62 > 100 µM | SK-OV-3 > 100 µM | KM12 > 100 µM | M14 > 100 µM | HCC 2998 > 100 µM | OVCAR-4 > 100 µM | SK-MEL-5 > 100 µM | NCI/ADR-RES > 100 µM | UACC-62 > 100 µM | OVCAR-3 > 100 µM | CAKI-1 > 100 µM | OVCAR-5 > 100 µM

CCN(CC)CCN1C=CC(C)C(C(=O)O)C1C(N)=O (stereo not given)
inactive: NCI-H522 > 100 µM | SR > 100 µM | LOX IMVI > 100 µM | 786-0 > 100 µM | CCRF-CEM > 100 µM | OVCAR-8 > 100 µM | HOP-62 > 100 µM | SK-OV-3 > 100 µM | KM12 > 100 µM | M14 > 100 µM | HCC 2998 > 100 µM | OVCAR-4 > 100 µM | SK-MEL-5 > 100 µM | NCI/ADR-RES > 100 µM | UACC-62 > 100 µM | OVCAR-3 > 100 µM | CAKI-1 > 100 µM | OVCAR-5 > 100 µM

C[N+](C)([O-])C12CC3CC(CC(C3)C1)C2
inactive: NCI-H522 27.2 µM | SR 41.3 µM | LOX IMVI 27.2 µM | 786-0 25.5 µM | CCRF-CEM 34.1 µM | OVCAR-8 40.1 µM | HOP-62 24 µM | SK-OV-3 61.9 µM | KM12 26.8 µM | M14 25.7 µM | HCC 2998 29.4 µM | OVCAR-4 33.1 µM | SK-MEL-5 27.2 µM | NCI/ADR-RES 31.6 µM | UACC-62 20.1 µM | OVCAR-3 16.4 µM | CAKI-1 > 100 µM | OVCAR-5 39.6 µM

CC(C)=CCC/C(C)=C/CC/C(C)=C/CC/C(C=O)=C/CC/C(C)=C\CC/C(C)=C/CC/C(C)=C/CC/C(C)=C/CC1=CC(=O)C=CC1=O
inactive: NCI-H522 14.9 µM | SR > 100 µM | LOX IMVI 80.2 µM | 786-0 67 µM | CCRF-CEM 72.8 µM | OVCAR-8 46.5 µM | HOP-62 > 100 µM | SK-OV-3 > 100 µM | KM12 81.3 µM | M14 45.3 µM | HCC 2998 > 100 µM | OVCAR-4 > 100 µM | SK-MEL-5 56 µM | NCI/ADR-RES > 100 µM | UACC-62 21.1 µM | OVCAR-3 54.2 µM | CAKI-1 33 µM | OVCAR-5 > 100 µM

N#CC1=C(N)N(/N=C/c2ccco2)C(c2ccco2)C1(C#N)C#N (stereo not given)
inactive: NCI-H522 15.3 µM | SR 16 µM | LOX IMVI 14.2 µM | 786-0 17.2 µM | CCRF-CEM 4.76 µM | OVCAR-8 19.7 µM | HOP-62 23.2 µM | SK-OV-3 33.7 µM | KM12 15.1 µM | M14 20 µM | HCC 2998 19.4 µM | OVCAR-4 15.4 µM | SK-MEL-5 15.3 µM | NCI/ADR-RES 25.1 µM | UACC-62 17.6 µM | OVCAR-3 18.2 µM | CAKI-1 15.2 µM | OVCAR-5 20.3 µM
